Source: PMC5676521 (Chemical Science, 2017)

Biological target: PRMT7 (TbPRMT7) (Trypanosoma brucei, UniProt Q582G4)
Sequence (Q582G4 whole entry): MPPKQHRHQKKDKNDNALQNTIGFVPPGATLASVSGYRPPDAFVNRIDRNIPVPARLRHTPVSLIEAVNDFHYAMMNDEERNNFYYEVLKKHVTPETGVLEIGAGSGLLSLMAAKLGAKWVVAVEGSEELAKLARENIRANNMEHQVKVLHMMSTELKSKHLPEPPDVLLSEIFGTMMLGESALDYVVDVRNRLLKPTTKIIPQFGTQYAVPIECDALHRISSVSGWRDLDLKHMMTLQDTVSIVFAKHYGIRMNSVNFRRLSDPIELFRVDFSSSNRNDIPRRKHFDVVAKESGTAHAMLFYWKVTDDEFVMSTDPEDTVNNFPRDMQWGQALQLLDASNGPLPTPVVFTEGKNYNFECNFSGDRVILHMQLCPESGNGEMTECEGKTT

Km: 15.3 ± 0.7 µM
Structure (SMILES): C[S+](CC[C@H](N)C(=O)O)C[C@H]1O[C@@H](n2nnc3c(N)ncnc32)[C@H](O)[C@@H]1O (stereo partly shown) [8-aza-SAM]
